Consider 25 compounds from patent publication US12565490B2, “Inhibitors of Receptor Interacting Protein Kinase I for the treatment of disease” (Board of Regents, The University of Texas System, priority 2020, dated 2026).

One may read the IC50 as the concentration at which inhibition is half-maximal.

For the assay, the system named is human monocytic cell line U937. Put plainly: Human U937 cellular necroptosis assay. Particulars: U-937; U937 cells stimulated with 25 ng/mL human TNFalpha and 25 μM z-VAD-FMK; 22 hr; viability by Cell Titer-Glo 2.0; read-out: hU937 IC50. Format: cell-based. The procedure, abridged: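 U937 cells (5000/well) driven to necroptosis by 25 ng/mL human TNFalpha plus 25 μM z-VAD-FMK alongside 1:3-diluted compounds, 22 hr at 37° C, 5% CO2. Viability by CellTiter-Glo luminescence; IC50 from four-parameter logistic fit.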
In general terms: In ATP-based viability assays light output follows the ATP content of the culture.
For `Cc1cnc(C(=O)N[C@H]2COc3cc(C#N)ccc3N(C)C2=O)nc1-c1ccc(F)cc1` [Example 136, (S)-N-(8-cyano-5-methyl-4-oxo-2,3,4,5-tetrahydrobenzo[b]-[1,4]oxazepin-3-yl)-4-(4-fluorophenyl)-5-methylpyrimidine-2-carboxamide], the 50% inhibitory concentration (IC50) was 14.3 nM.
Then `Cc1ccc(-c2nc(C(=O)N[C@H]3COc4cc(C#N)ccc4N(C)C3=O)ncc2C)cc1` [Example 137, (S)-N-(8-cyano-5-methyl-4-oxo-2,3,4,5-tetrahydrobenzo[b]-[1,4]oxazepin-3-yl)-5-methyl-4-(p-tolyl)pyrimidine-2-carboxamide], with 18.8 nM.
For `CN1C(=O)[C@@H](NC(=O)c2ncc(Cl)c(-c3ccc(F)cc3F)n2)COc2cc(C#N)ccc21` [Example 138, (S)-5-chloro-N-(8-cyano-5-methyl-4-oxo-2,3,4,5-tetrahydrobenzo[b]-[1,4]oxazepin-3-yl)-4-(2,4-difluorophenyl)pyrimidine-2-carboxamide], the half-inhibitory concentration (IC50) worked out at 16.4 nM.
On to `Cc1ccc(-c2nc(C(=O)N[C@H]3COc4cc(C#N)ccc4N(C)C3=O)ncc2Cl)c(F)c1` [Example 139, (S)-5-chloro-N-(8-cyano-5-methyl-4-oxo-2,3,4,5-tetrahydrobenzo[b]-[1,4]oxazepin-3-yl)-4-(2-fluoro-4-methylphenyl)pyrimidine-2-carboxamide], for which the IC50 was 32.6 nM.
With `CN1C(=O)[C@@H](NC(=O)c2ncc(Cl)c(-c3ccc(F)cc3F)n2)COc2ccc(NCC(F)(F)CCl)cc21` [Example 140, (S)-5-chloro-N-(7-((3-chloro-2,2-difluoropropyl)amino)-5-methyl-4-oxo-2,3,4,5-tetrahydrobenzo[b]-[1,4]oxazepin-3-yl)-4-(2,4-difluorophenyl)pyrimidine-2-carboxamide] the figure was 35.4 nM; with `CN1C(=O)[C@@H](NC(=O)c2ncc(Cl)c(-c3ccc(F)cc3F)n2)COc2ccc(NCC3(CCl)CCOCC3)cc21` [Example 141, (S)-5-chloro-N-(7-(((4-(chloromethyl)tetrahydro-2H-pyran-4-yl)methyl)amino)-5-methyl-4-oxo-2,3,4,5-tetrahydrobenzo[b]-[1,4]oxazepin-3-yl)-4-(2,4-difluorophenyl)pyrimidine-2-carboxamide], 14.5 nM.
Then `CN1C(=O)[C@@H](NC(=O)c2ncc(Cl)c(-c3cc(F)ccc3F)n2)COc2ccc(NCC3(CCl)CCOCC3)cc21` [Example 142, (S)-5-chloro-N-(7-(((4-(chloromethyl)tetrahydro-2H-pyran-4-yl)methyl)amino)-5-methyl-4-oxo-2,3,4,5-tetrahydrobenzo[b]-[1,4]oxazepin-3-yl)-4-(2,5-difluorophenyl)pyrimidine-2-carboxamide], with 19 nM; and `CN1C(=O)[C@@H](NC(=O)c2ncc(Cl)c(-c3ccc(F)cc3F)n2)COc2ccc(N3CCOCC3)cc21` [Example 143, (S)-5-chloro-4-(2,4-difluorophenyl)-N-(5-methyl-7-morpholino-4-oxo-2,3,4,5-tetrahydrobenzo[b]-[1,4]oxazepin-3-yl)pyrimidine-2-carboxamide], with 71 nM.
Then `CN1C(=O)[C@@H](NC(=O)c2ncc(Cl)c(-c3cc(F)ccc3F)n2)COc2ccc(N3CC4(CCOCC4)C3)cc21` [Example 144, (S)-5-chloro-4-(2,5-difluorophenyl)-N-(5-methyl-4-oxo-7-(7-oxa-2-azaspiro[3.5]nonan-2-yl)-2,3,4,5-tetrahydrobenzo[b]-[1,4]oxazepin-3-yl)pyrimidine-2-carboxamide], with 15.8 nM.
For the compound `Cc1ccc(-c2nc(C(=O)N[C@H]3COc4ccc(N5CC6(CCOCC6)C5)cc4N(C)C3=O)ncc2Cl)cc1F` [Example 145, (S)-5-chloro-4-(3-fluoro-4-methylphenyl)-N-(5-methyl-4-oxo-7-(7-oxa-2-azaspiro[3.5]nonan-2-yl)-2,3,4,5-tetrahydrobenzo[b]-[1,4]oxazepin-3-yl)pyrimidine-2-carboxamide], the IC50 is 11 nM.
Then `COCCOc1ccc2c(c1)N(C)C(=O)[C@@H](NC(=O)c1ncc(Cl)c(-c3ccc(F)cc3F)n1)CO2` [Example 146, (S)-5-chloro-4-(2,4-difluorophenyl)-N-(7-(2-methoxyethoxy)-5-methyl-4-oxo-2,3,4,5-tetrahydrobenzo[b]-[1,4]oxazepin-3-yl)pyrimidine-2-carboxamide], with 19.4 nM; and `CN1C(=O)[C@@H](NC(=O)c2ncc(Cl)c(-c3ccc(F)cc3F)n2)COc2ccc(OCC(CO)CCl)cc21` (stereo partly drawn) [Example 147, 5-chloro-N-((3S)-7-(3-chloro-2-(hydroxymethyl)propoxy)-5-methyl-4-oxo-2,3,4,5-tetrahydrobenzo[b]-[1,4]oxazepin-3-yl)-4-(2,4-difluorophenyl)pyrimidine-2-carboxamide], with 20.9 nM.
With `CN1C(=O)[C@@H](NC(=O)c2ncc(Cl)c(-c3ccc(F)cc3F)n2)COc2ccc(Oc3ccn(C)n3)cc21` [Example 148, (S)-5-chloro-4-(2,4-difluorophenyl)-N-(5-methyl-7-((1-methyl-1H-pyrazol-3-yl)oxy)-4-oxo-2,3,4,5-tetrahydrobenzo[b]-[1,4]oxazepin-3-yl)pyrimidine-2-carboxamide] the figure was 8.58 nM; with `CN1C(=O)[C@@H](NC(=O)c2ncc(Cl)c(-c3ccc(F)cc3F)n2)COc2ccc(-c3ccnn3C)cc21` [Example 149, (S)-5-chloro-4-(2,4-difluorophenyl)-N-(5-methyl-7-(1-methyl-1H-pyrazol-5-yl)-4-oxo-2,3,4,5-tetrahydrobenzo[b]-[1,4]oxazepin-3-yl)pyrimidine-2-carboxamide], 19.8 nM.
Consider `CN1C(=O)[C@@H](NC(=O)c2ncc(Cl)c(-c3ccc(F)cc3F)n2)COc2ccc(-c3cnn(C)c3)cc21` [Example 150, (S)-5-chloro-4-(2,4-difluorophenyl)-N-(5-methyl-7-(1-methyl-1H-pyrazol-4-yl)-4-oxo-2,3,4,5-tetrahydrobenzo[b]-[1,4]oxazepin-3-yl)pyrimidine-2-carboxamide], for which the IC50 is 14.2 nM.
For `CN1C(=O)[C@@H](NC(=O)c2ncc(Cl)c(-c3ccc(F)cc3F)n2)COc2ccc(-c3cn[nH]c3)cc21` [Example 151], the IC50 stood at 13 nM.
With `Cc1cnn(-c2ccc3c(c2)N(C)C(=O)[C@@H](NC(=O)c2ncc(Cl)c(-c4ccc(F)cc4F)n2)CO3)c1` [Example 152, (S)-5-chloro-4-(2,4-difluorophenyl)-N-(5-methyl-7-(4-methyl-1H-pyrazol-1-yl)-4-oxo-2,3,4,5-tetrahydrobenzo[b]-[1,4]oxazepin-3-yl)pyrimidine-2-carboxamide] the figure was 29.2 nM; with `Cc1ccc(-c2nc(C(=O)N[C@H]3COc4ccc(CN5CCn6ncnc6C5)cc4N(C)C3=O)ncc2Cl)cc1F` [Example 153, (S)-5-chloro-N-(7-((5,6-dihydro-[1,2,4]triazolo[1,5-a]pyrazin-7(8H)-yl)methyl)-5-methyl-4-oxo-2,3,4,5-tetrahydrobenzo[b]-[1,4]oxazepin-3-yl)-4-(3-fluoro-4-methylphenyl)pyrimidine-2-carboxamide], 10 nM.
For `CN1C(=O)[C@@H](NC(=O)c2ncc(Cl)c(-c3ccc(F)cc3F)n2)COc2cc(CN3CCn4ncnc4C3)ccc21` [Example 154, (S)-5-chloro-4-(2,4-difluorophenyl)-N-(8-((5,6-dihydro-[1,2,4]triazolo[1,5-a]pyrazin-7(8H)-yl)methyl)-5-methyl-4-oxo-2,3,4,5-tetrahydrobenzo[b]-[1,4]oxazepin-3-yl)pyrimidine-2-carboxamide], the IC50 was 32.1 nM.
In the case of `CN1C(=O)[C@@H](NC(=O)c2ncc(Cl)c(-c3cc(F)ccc3F)n2)COc2cc(CN3CCn4ncnc4C3)ccc21` [Example 155, (S)-5-chloro-4-(2,5-difluorophenyl)-N-(8-((5,6-dihydro-[1,2,4]triazolo[1,5-a]pyrazin-7(8H)-yl)methyl)-5-methyl-4-oxo-2,3,4,5-tetrahydrobenzo[b]-[1,4]oxazepin-3-yl)pyrimidine-2-carboxamide], the IC50 was found to be 24.8 nM.
Then `Cc1cnc(C(=O)N[C@H]2COc3ccc(CN4CCn5ncnc5C4)cc3N(C)C2=O)nc1-c1ccccc1F` [Example 156, (S)-N-(7-((5,6-dihydro-[1,2,4]triazolo[1,5-a]pyrazin-7(8H)-yl)methyl)-5-methyl-4-oxo-2,3,4,5-tetrahydrobenzo[b]-[1,4]oxazepin-3-yl)-4-(2-fluorophenyl)-5-methylpyrimidine-2-carboxamide], with 17.1 nM.
With `Cc1cnc(C(=O)N[C@H]2COc3cc(Cl)cnc3N(C)C2=O)nc1-c1cc(C(F)(F)F)cs1` [Example 157, (S)-N-(8-chloro-5-methyl-4-oxo-2,3,4,5-tetrahydro-pyrido[3,2-b][1,4]oxazepin-3-yl)-5-methyl-4-(4-(trifluoromethyl)thiophen-2-yl)-pyrimidine-2-carboxamide] the figure was 423 nM.
On to `Cc1cnc(C(=O)N[C@H]2COc3cc(Cl)cnc3N(C)C2=O)nc1C1CCC(F)(F)CO1` (stereo partly drawn) [Example 158, N-((S)-8-chloro-5-methyl-4-oxo-2,3,4,5-tetrahydro-pyrido[3,2-b][1,4]oxazepin-3-yl)-4-(5,5-difluorotetrahydro-2H-pyran-2-yl)-5-methylpyrimidine-2-carboxamide], for which the IC50 is 149 nM.
Then `Cc1cnc(C(=O)N[C@H]2COc3ccc(Oc4cnn(C)c4)cc3N(C)C2=O)nc1-c1ccccc1F` [Example 159, (S)-4-(2-fluorophenyl)-5-methyl-N-(5-methyl-7-((1-methyl-1H-pyrazol-4-yl)oxy)-4-oxo-2,3,4,5-tetrahydrobenzo[b]-[1,4]oxazepin-3-yl)pyrimidine-2-carboxamide], with 9 nM; and `Cc1cnc(C(=O)N[C@H]2COc3ccc(Oc4cnn(C)c4)cc3N(C)C2=O)nc1-c1ccc(C#N)cc1` [Example 160, (S)-4-(4-cyanophenyl)-5-methyl-N-(5-methyl-7-((1-methyl-1H-pyrazol-4-yl)oxy)-4-oxo-2,3,4,5-tetrahydrobenzo[b]-[1,4]oxazepin-3-yl)pyrimidine-2-carboxamide], with 24 nM.
